Measured values from ChEMBL document CHEMBL1158341, “A macrolactone from benzo[a]phenazine with potent activity against Mycobacterium tuberculosis” (2009).
Converted amounts (≈) assume the structure as drawn. The source made the active and inactive calls. The rule behind the calls is not given here.

Assays:
[1] = system: Mycobacterium tuberculosis; assay: Antimycobacterial activity against Mycobacterium tuberculosis H37Rv ATCC 27294 after 24 hrs by microplate alamar blue assay; format: functional
[2] = system: Mycobacterium tuberculosis; assay: Antimycobacterial activity against Mycobacterium tuberculosis H37Rv ATCC 27294 at 100 ug/mL after 24 hrs by microplate alamar blue assay; format: functional

Which MIC [1] does the source give for `CC1(C)CCC(=O)c2nc3ccccc3nc2-c2ccccc2C(=O)O1` here?
The MIC was 0.62 µg/mL (≈ 1.79 µM).

And the inhibition at 100 µg/mL [2]?
Its inhibition at 100 µg/mL is 90%.

What does the source list for `CC1(C)CCC(=O)c2nccnc2-c2ccccc2C(=O)O1`?
MIC [1]: 50 µg/mL (≈ 169 µM); inhibition at 100 µg/mL [2]: 90%

Which MIC [1] does the source give for `CC1(C)CC(=O)c2nc3ccccc3nc2-c2ccccc2C(=O)O1` here?
Its MIC is 100 µg/mL (≈ 301 µM).

And the inhibition at 100 µg/mL [2]?
The inhibition at 100 µg/mL was 90%.

For `CC(C)(O)CCCC1(O)C(=O)c2ccccc2-c2nc3ccccc3nc21` (stereo unspecified), which MIC [1] is on record?
The MIC was “inactive”.

What about the inhibition at 100 µg/mL [2] of the same compound?
Its inhibition at 100 µg/mL is 90%.

`CO[C@H]1/C=C/O[C@@]2(C)Oc3c(C)c(O)c4c(O)c(c(/C=N/N5CCN(C)CC5)c(O)c4c3C2=O)NC(=O)/C(C)=C\C=C\[C@H](C)[C@H](O)[C@@H](C)[C@@H](O)[C@@H](C)[C@H](OC(C)=O)[C@@H]1C` [RIFAMPIN] was tested. Which MIC [1] did it give?
Its MIC is 1 µg/mL (≈ 1.22 µM).

What does the source list for `CC1(C)OC(=O)c2ccccc2-c2c(nc3ccccc3[n+]2[O-])C(=O)CC1Br` (stereo unspecified)?
MIC [1]: 25 µg/mL (≈ 56.7 µM); inhibition at 100 µg/mL [2]: 90%
